Measurements: ChEMBL document CHEMBL1149839, “Alkaloids from Daphniphyllum oldhami” (2008)

How the values were obtained:
Platelet [1] = assay: Inhibition of PAF-induced platelet aggregation at 2.4 mmol/L; type: functional
Platelet [2] = assay: Inhibition of PAF-induced platelet aggregation at 1.0 mmol/L; type: functional

SMILES | inhibition at 2400 µM (Platelet [1]) | inhibition at 1000 µM (Platelet [2])
CC(=O)Oc1ccccc1C(=O)O [ASPIRIN] | 44.9% | 
CC(=O)O[C@@H](C[C@]12[C@@H]3CCC[C@@]34CCC3[C@H](O)N4[C@@H]1[C@@H](C(C)C)CC[C@@]32C)C(=O)[C@]1(C)CO[C@@]2(C)CC[C@H]1O2 [DAPHNIOLDHANINE H] |  | 10.9%
C[C@@H]1CN2[C@H]3[C@@H]4CCC[C@@H]4C(=O)C[C@@H]3[C@]3(C)OC(=O)CC[C@]34CC[C@H]1[C@H]24 [DAPHNIOLDHANINE J] |  | 71.6%
CCC1=CC[C@]2(CO1)[C@@H]1CCC3=C4[C@H](CC3)[C@H](C(=O)OC)C[C@]42CN(C)C1 [DEHYDRODAPHNIGRACILINE] |  | 13.4%
